The text below walks through data of ChEMBL document CHEMBL5441456, “ASAP - SARS-CoV-2 nsp3 macrodomain dose response” (2024).

Where “and” joins values, the source holds several entries; their conditions need not be identical. Equal values may be shown once.

The experiment addresses Replicase polyprotein 1ab (Severe acute respiratory syndrome coronavirus 2, UniProt P0DTD1). Put plainly: Functional biochemical assay to identify treatments for viral infectious disease that targets SARS-COV-2 nsp3 macrodomain, whereby the mechanism of action displaces an ADP-Ribose modified peptide from the binding site. Utilizing a time-resolved fluorescence method to measure binding by reading the emitted fluorescence intensity in two wavelengths.
As for `CCOC(=O)C1=C(Nc2cc(C)cc(C)c2)OCC1=O`, the IC50 was more than 99.5 µM. Under `CNc1ccc([C@@H](CC(=O)O)NC(=O)c2ncnc3[nH]ccc23)cc1` stands 28.9 µM and 34.6 µM.

On to `Cc1ccc2c(NC(=O)c3ccc(NC(=O)NC4CC4)cc3)c(C(=O)O)sc2n1`, for which the IC50 was more than 99.5 µM. The compound `Cn1c(C(=O)O)c(NC(=O)c2ccc(NC(=O)NC3CC3)cc2)c2cccnc21` registered a 50% inhibitory concentration (IC50) of more than 99.5 µM. Under `COc1ccc([C@@H]2CCN(c3ncnc4[nH]ccc34)C2)cc1` stands more than 99.5 µM. For `c1nc(Nc2ccc3c(c2)OCO3)c2cc[nH]c2n1`, the IC50 was more than 99.5 µM. `CNC(=O)c1ccc([C@@H](CC(=O)O)NC(=O)c2ncnc3[nH]ccc23)cc1`: the IC50 was 9.07 µM and 13.4 µM. The same measure for `CC(C)[C@@H](Nc1ncnc2[nH]c3cc(F)ccc3c12)c1ccc2c(c1)OCCO2`: 8.54 µM and 10 µM. The same measure for `Cc1[nH]nc2ncc(C(=O)N[C@@H](c3ccc4c(c3)OCCO4)C(C)C)cc12`: more than 99.5 µM; for `CC(C)[C@@H](Nc1ncnc2c1cnn2C)c1ccc2c(c1)OCCO2`: more than 99.5 µM; for `C[C@@H](Nc1ncnc2[nH]ccc12)[C@@H]1CCOC1`: more than 99.5 µM.

`CC(C)[C@@H]1C[C@@H](Nc2ncnc3[nH]ccc23)CCO1` had an IC50 of more than 99.5 µM. Under `COc1cccc([C@@H](CC(=O)O)NC(=O)c2ncnc3[nH]ccc23)c1` stands 16.3 µM and 21.7 µM; under `O=C(O)C[C@@H](NC(=O)c1ncnc2[nH]ccc12)c1ccc(NCC2=NO[C@@H]3COC[C@H]23)cc1`, 7.29 µM and 8.33 µM; under `CC(=O)Nc1ccc([C@@H](CC(=O)O)NC(=O)c2ncnc3[nH]ccc23)cc1`, 14.5 µM and 14.6 µM. The same measure for `Cc1[nH]c2ncnc(NC(=O)c3ccncc3)c2c1C`: more than 99.5 µM; for `O=C(Nc1ccc(C(=O)Nc2c(C(=O)O)sc3ccncc23)cc1)NC1CC1`: more than 99.5 µM; for `c1nc(N[C@@H](c2ccc3c(c2)OCCO3)C2CCC2)c2cc[nH]c2n1`: 5.2 µM and 6.52 µM. Under `N=C(N)C[C@@H](NC(=O)c1ncnc2[nH]ccc12)c1ccc(Br)cc1` stands more than 99.5 µM; under `CNC(=N)C[C@@H](NC(=O)c1ncnc2[nH]ccc12)c1ccc(Br)cc1`, more than 99.5 µM; under `C[C@@H](Nc1ncnc2[nH]ccc12)[C@@H]1CCCCO1`, more than 99.5 µM. On to `Cc1ncc(C(=O)Nc2ncnc3[nH]c(C)c(C)c23)cn1`, for which the IC50 is more than 99.5 µM.

`Cc1nc2nc[nH]c(NC(=O)c3ccc(NC(=O)NC4CC4)nc3)c-2c1C` registered a half-inhibitory concentration (IC50) of more than 99.5 µM. Under `O=C(O)C[C@@H](NC(=O)c1ncnc2[nH]ccc12)c1ccc(Nc2nnc(C3CC3)o2)cc1` stands 3.78 µM and 4.55 µM; under `COc1ccc(Nc2ncnc3[nH]ccc23)cc1OC`, more than 99.5 µM. Under `O=C(Nc1ccc(C(=O)Nc2c(C(=O)O)oc3cc(Br)ccc23)cc1)NC1CC1` stands more than 99.5 µM. The same measure for `CC(C)Cc1ccc2c(NC(=O)c3ccc(NC(=O)NC4CC4)cc3)c(C(=O)O)sc2n1`: more than 99.5 µM; for `COc1ccc([C@@H](Nc2ncnc3[nH]ccc23)C(C)C)cc1OC`: more than 99.5 µM.

For the compound `FC(F)[C@@H](Nc1ncnc2[nH]ccc12)c1ccc2c(c1)OCCO2`, the IC50 was 16 µM and 22.8 µM.

In the case of `O=C(Nc1cccc2c(C(=O)Nc3cc4c(cc3C(=O)O)OCCO4)c[nH]c12)NC1CC1`, the IC50 was more than 99.5 µM. Under `CS(=O)(=O)Nc1ccc([C@@H](CC(=O)O)NC(=O)c2ncnc3[nH]ccc23)cc1` stands 12.1 µM and 10 µM. Under `c1nc(N[C@@H](c2ccc3c(c2)OCCO3)C2CC2)c2cn[nH]c2n1` stands 17.7 µM and 19.9 µM; under `O=C(O)C[C@@H](NC(=O)c1ccc(NC(=O)NC2CC2)cc1)c1cccnc1`, 77.1 µM and 68.2 µM. On to `CNS(=O)(=O)C[C@@H](NC(=O)c1ncnc2[nH]ccc12)c1ccc(Br)cc1`, for which the concentration for half-maximal inhibition (IC50) was more than 99.5 µM.

As for `O=C(N[C@@H](Cc1nn[nH]n1)c1ccc(Br)cc1)c1ncnc2[nH]ccc12`, the IC50 was 1.92 µM and 2.11 µM.

`CC(C)[C@@H](NC(=O)c1cnn(-c2ccccc2)n1)c1ccc2c(c1)OCCO2` registered an IC50 of more than 99.5 µM. With `c1nc(NCc2ccc3c(c2)OCCO3)c2cc[nH]c2n1`, the concentration for half-maximal inhibition (IC50) was 80.3 µM and 93.9 µM.

For `CC(C)[C@@H](Nc1ncnc2[nH]c(-c3cc[nH]n3)cc12)c1ccc2c(c1)OCCO2`, the IC50 is 1.81 µM and 1.88 µM. Under `O=C(O)C[C@H](NC(=O)c1ccc(NC(=O)NC2CC2)cc1)c1cccnc1` stands 50.1 µM and 58.4 µM. The same measure for `Cc1[nH]c2ncnc(NC(=O)c3ccc(-n4cccc4)nc3)c2c1C`: more than 99.5 µM; for `COc1ccc([C@@H](Nc2ncnc3[nH]ccc23)C(C)C)cc1`: 6.36 µM and 8.21 µM.

As for `O=C(Nc1cccc2c(C(=O)Nc3cc4c(cc3CO)OCCO4)c[nH]c12)NC1CC1`, the IC50 was more than 99.5 µM.

As for `O=C(O)C[C@@H](NC(=O)c1ccc(NC(=O)NC2CC2)cc1)c1cccc(O)c1`, the IC50 was 9.04 µM and 8.76 µM. The same measure for `C[C@@H]1Oc2ccc(Nc3ncnc4[nH]ccc34)cc2NC1=O`: more than 99.5 µM; for `O=C(O)C[C@@H](NC(=O)c1ccc(NC(=O)NC2CC2)cc1)C1CCOCC1`: more than 99.5 µM; for `O=C(O)C[C@@H](NC(=O)c1c[nH]c2ncncc12)c1ccc(NCC2=NO[C@@H]3COC[C@H]23)cc1`: more than 99.5 µM. As for `Cc1nnc(Nc2ccc([C@@H](CC(=O)O)NC(=O)c3ncnc4[nH]ccc34)cc2)o1`, the IC50 is 12.2 µM and 10.1 µM. The same measure for `O=C(O)[C@@H](Nc1ncnc2[nH]ccc12)c1ccc2c(c1)OCCO2`: 9.41 µM and 7.95 µM.

Compound `O=C(Nc1ccc(C(=O)Nc2c(C(=O)O)[nH]c3ccccc23)cc1)NC1CC1` yielded an IC50 of more than 99.5 µM. The same measure for `CC(C)[C@@H](Nc1ncnc2ncccc12)c1ccc2c(c1)OCCO2`: more than 99.5 µM; for `Cn1ncc2c(N[C@@H](c3ccc4c(c3)OCCO4)C3CC3)ncnc21`: more than 99.5 µM. In turn, `c1nc(N2CCC[C@@H](Nc3ccc4c(c3)OCCO4)C2)c2cc[nH]c2n1` showed an IC50 of more than 99.5 µM.

Turning to `O=C(Nc1ccc2c(C(=O)N[C@@H]3c4ccccc4C[C@@H]3C(=O)O)cnn2c1)NC1CC1`, the IC50 was 63.8 µM and 49.3 µM. As to `C[C@@H](Nc1ncnc2[nH]ccc12)[C@@H]1CCS(=O)(=O)C1`, the half-inhibitory concentration (IC50) was more than 99.5 µM.

Consider `c1ccc2c(c1)OCC[C@@H]2Nc1ncnc2[nH]ccc12`, for which the half-maximal inhibitory concentration (IC50) was more than 99.5 µM. Under `O=C(Nc1cccc2c(C(=O)Nc3ccccc3C(=O)O)c[nH]c12)NC1CC1` stands 19.9 µM and 20 µM; under `O=C(O)C[C@@H](NC(=O)c1ccc(NC(=O)NC2CC2)cc1)c1cccc(F)c1`, 27.3 µM and 32.5 µM.

As to `CC(C)[C@@H](NC(=O)c1ccccn1)c1ccc2c(c1)OCCO2`, the IC50 is more than 99.5 µM. Regarding `CC(C)[C@@H](NC(=O)c1ccnc(-n2ccnc2)c1)c1ccc2c(c1)OCCO2`, the IC50 is more than 99.5 µM.

The compound `NC(=O)[C@@H](NC(=O)c1ncnc2[nH]ccc12)c1ccc(Br)cc1` yielded a half-inhibitory concentration (IC50) of more than 99.5 µM. As to `O=C(O)C[C@@H](NC(=O)c1ncnc2[nH]ccc12)c1ccc(Nc2nnco2)cc1`, the IC50 was 6.57 µM and 5.48 µM. Under `CC(C)[C@@H](NCc1cccc2[nH]ccc12)c1ccc2c(c1)OCCO2` stands more than 99.5 µM; under `Cc1[nH]c2ncnc(C(=O)Nc3ccnc(Cl)c3)c2c1C`, more than 99.5 µM; under `c1ccc2c(N[C@@H](c3ccc4c(c3)OCCO4)C3CC3)ncnc2c1`, more than 99.5 µM. Compound `N#CC[C@@H](NC(=O)c1ncnc2[nH]ccc12)c1ccc(Br)cc1` had a half-inhibitory concentration (IC50) of more than 99.5 µM. The same measure for `O=C(O)C[C@@H](NC(=O)c1ncnc2[nH]ccc12)c1ccc(NCc2ccno2)cc1`: 11.3 µM and 13.1 µM.
